Peptide text beside a SMILES is read from it.
T1: FKBP51 (Homo sapiens, UniProt Q13451)
T1 sequence (Q13451 1-457): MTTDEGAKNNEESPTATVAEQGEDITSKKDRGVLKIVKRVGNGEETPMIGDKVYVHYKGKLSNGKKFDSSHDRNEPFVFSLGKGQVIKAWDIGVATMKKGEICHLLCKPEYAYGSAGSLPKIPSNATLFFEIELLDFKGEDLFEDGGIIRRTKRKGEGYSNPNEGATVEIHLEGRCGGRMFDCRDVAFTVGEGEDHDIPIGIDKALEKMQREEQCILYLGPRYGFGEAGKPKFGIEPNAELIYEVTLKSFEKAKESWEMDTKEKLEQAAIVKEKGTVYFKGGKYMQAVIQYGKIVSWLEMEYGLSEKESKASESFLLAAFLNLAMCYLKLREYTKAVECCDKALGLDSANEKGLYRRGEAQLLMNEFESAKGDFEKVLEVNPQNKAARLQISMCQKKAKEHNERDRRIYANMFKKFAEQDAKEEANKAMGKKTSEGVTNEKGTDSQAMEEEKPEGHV

T2: NADSYN1 (human, UniProt Q6IA69 1-706)
T2 construct: prey of the pull-down; also called Nicotinamide adenine dinucleotide synthase 1; source: E. coli BL21, purified as GST fusion (GSTrap), GST removed with PreScission protease
T2 sequence (looked up): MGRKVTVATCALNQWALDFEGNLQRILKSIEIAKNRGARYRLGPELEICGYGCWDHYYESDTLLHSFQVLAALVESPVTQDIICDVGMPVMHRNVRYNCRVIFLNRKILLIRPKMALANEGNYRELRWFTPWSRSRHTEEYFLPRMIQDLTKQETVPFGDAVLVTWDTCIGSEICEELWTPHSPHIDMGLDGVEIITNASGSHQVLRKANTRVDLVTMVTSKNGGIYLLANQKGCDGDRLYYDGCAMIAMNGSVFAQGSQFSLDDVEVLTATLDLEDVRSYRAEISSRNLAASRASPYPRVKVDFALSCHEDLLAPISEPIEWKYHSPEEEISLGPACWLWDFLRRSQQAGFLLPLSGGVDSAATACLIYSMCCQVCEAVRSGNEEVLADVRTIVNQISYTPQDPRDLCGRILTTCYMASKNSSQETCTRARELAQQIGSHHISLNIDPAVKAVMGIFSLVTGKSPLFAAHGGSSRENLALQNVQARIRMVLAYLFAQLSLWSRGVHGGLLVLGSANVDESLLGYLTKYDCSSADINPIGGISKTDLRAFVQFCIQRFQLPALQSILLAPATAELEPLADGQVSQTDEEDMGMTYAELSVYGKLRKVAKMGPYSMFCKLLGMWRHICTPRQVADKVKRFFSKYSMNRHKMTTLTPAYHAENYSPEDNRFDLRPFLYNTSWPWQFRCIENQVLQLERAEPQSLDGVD

T3: DNAAF2 (human, UniProt Q9NVR5 1-837)
T3 construct: prey of the pull-down; also called dynein axonemal assembly factor 2; source: E. coli BL21, purified as GST fusion (GSTrap), GST removed with PreScission protease
T3 sequence (looked up): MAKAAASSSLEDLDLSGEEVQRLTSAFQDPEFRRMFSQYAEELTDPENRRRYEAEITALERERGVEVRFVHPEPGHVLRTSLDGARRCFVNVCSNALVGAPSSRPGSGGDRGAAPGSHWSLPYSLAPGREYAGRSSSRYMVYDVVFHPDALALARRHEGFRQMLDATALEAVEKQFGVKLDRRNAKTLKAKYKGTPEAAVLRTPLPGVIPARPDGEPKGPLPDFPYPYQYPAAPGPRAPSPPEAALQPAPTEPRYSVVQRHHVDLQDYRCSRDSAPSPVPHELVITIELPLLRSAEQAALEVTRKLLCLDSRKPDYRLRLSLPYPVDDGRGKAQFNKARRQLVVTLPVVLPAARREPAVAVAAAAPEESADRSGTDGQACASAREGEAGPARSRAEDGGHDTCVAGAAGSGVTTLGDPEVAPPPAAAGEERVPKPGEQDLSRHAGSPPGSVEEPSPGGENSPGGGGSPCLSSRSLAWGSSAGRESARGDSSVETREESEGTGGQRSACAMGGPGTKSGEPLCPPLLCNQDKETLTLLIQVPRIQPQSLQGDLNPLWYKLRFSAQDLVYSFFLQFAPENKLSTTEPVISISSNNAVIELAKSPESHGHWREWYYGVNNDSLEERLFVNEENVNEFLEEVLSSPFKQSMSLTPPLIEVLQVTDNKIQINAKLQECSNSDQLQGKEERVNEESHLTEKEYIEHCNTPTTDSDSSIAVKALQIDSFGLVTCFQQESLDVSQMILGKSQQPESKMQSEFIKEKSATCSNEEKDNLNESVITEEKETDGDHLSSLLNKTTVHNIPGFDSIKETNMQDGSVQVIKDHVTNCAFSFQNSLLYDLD

B1: GST–AIP (natural protein, human, UniProt O00170 1-330, looked up)
chain: MADIIARLREDGIQKRVIQEGRGELPDFQDGTKATFHYRTLHSDDEGTVLDDSRARGKPMELIIGKKFKLPVWETIVCTMREGEIAQFLCDIKHVVLYPLVAKSLRNIAVGKDPLEGQRHCCGVAQMREHSSLGHADLDALQQNPQPLIFHMEMLKVESPGTYQQDPWAMTDEEKAKAVPLIHQEGNRLYREGHVKEAAAKYYDAIACLKNLQMKEQPGSPEWIQLDQQITPLLLNYCQCKLVVEEYYEVLDHCSSILNKYDDNVKAYFKRGKAHAAVWNAQEAQADFAKVLELDPALAPVVSRELRALEARIRQKDEEDKARFRGIFSH
notes: bait of the GST pull-down; source: E. coli BL21, purified (GSTrap 4B, PD-10)
B2: GST–FKBP51 (natural protein, human, UniProt Q13451 1-457, looked up)
chain: T1 sequence (Q13451 1-457)
notes: as for B1
B3: Bcl-G (natural protein, human, UniProt Q9BZR8 1-327, looked up)
chain: MCSTSGCDLEEIPLDDDDLNTIEFKILAYYTRHHVFKSTPALFSPKLLRTRSLSQRGLGNCSANESWTEVSWPCRNSQSSEKAINLGKKKSSWKAFFGVVEKEDSQSTPAKVSAQGQRTLEYQDSHSQQWSRCLSNVEQCLEHEAVDPKVISIANRVAEIVYSWPPPQATQAGGFKSKEIFVTEGLSFQLQGHVPVASSSKKDEEEQILAKIVELLKYSGDQLERKLKKDKALMGHFQDGLSYSVFKTITDQVLMGVDPRGESEVKAQGFKAALVIDVTAKLTAIDNHPMNRVLGFGTKYLKENFSPWIQQHGGWEKILGISHEEVD
notes: Bcl-2-like protein 14 (Bcl-G), human, full-length cDNA clone; also called Bcl-2-like protein 14; source: E. coli BL21, purified as GST fusion (GSTrap), GST removed with PreScission protease

How the values were obtained:
HEK293 cells = conditions: N-terminally fluorescein-labeled peptides, 20 μM, fluorescence imaging
Excerpt: (§1) P < 0.05 was considered to be statistically significant. Data are presented as mean ± SEM.

Hsp90–Tom70 interaction [1] = assay: Proximity ligation assay (PLA) of Hsp90–Tom70 interaction in HEK293 cells; type: cell-based, human; conditions: non-fluorescent peptide, n = 3
Excerpt: as §1
(§2) In subsequent experiments, non‐fluorescent peptides were used. […] Cell impermeable Hsp90 peptide served as a treatment control.

Tom20–Tom70 interaction = assay: Mammalian two-hybrid assay (luciferase) of Tom20–Tom70 interaction in HEK293 cells; type: cell-based, human; conditions: peptide 20 μM added 4 h after transfection, 48 h, n = 3
Excerpt: (§3) Tom70 sequence was PCR amplified and subcloned into pACT vector of CheckMate™ mammalian two‐hybrid system (Promega, Madison, WI, USA) using SalI/NotI restriction sites, and Hsp90 and Tom20 DNA sequences were PCR amplified and subcloned into pBIND vector using SalI/NotI restriction sites. Tom70‐pACT/Hsp90‐pBIND and Tom70‐pACT/Tom20‐pBIND were co‐transfected with pLuc plasmid in a 1 : 1 : 1 molar ratio into HEK293 cells using Lipofectamine 3000 transfection reagent (Invitrogen, Carlsbad, CA, USA) according to the manufacturer's protocol. Triplicate samples in 96‐well cell culture plates Corning (Tewskbury, MA, USA) were used in each experiment. Hsp90, R9–Hsp90, Tom20 and R9–Tom20 peptides at concentration 20 μM were added 4 h after transfection. HEK293 cells were cultivated for 48 h, washed twice with PBS and lysed with PBS containing 1% Triton X‐100. Luciferase expression was detected using a luciferase assay kit from BioThema (Huddinge, Sweden) on a 96‐well plate reader from Perkin Elmer (Upplands Väsby, Stockholm, Sweden).
as §2

Hsp90–Tom70 interaction [2] = assay: Mammalian two-hybrid assay (luciferase) of Hsp90–Tom70 interaction in HEK293 cells; type: cell-based, human; conditions: peptide 20 μM added 4 h after transfection, 48 h, n = 3
Excerpt: as §3, §2

FKBP51 [3] = conditions: cited from earlier work
Excerpt: Here in this study, we systematically searched the human protein database (https://www.ncbi.nlm.nih.gov/protein/) for the protein products containing Hsp70/Hsp90‐like sequence signatures at their C terminus. Sev ...

FKBP51 [4] = molecular target: T1, FKBP51; assay: Dot-blot competition assay: HRP-conjugated peptide vs unlabeled peptide on immobilized FKBP51; conditions: HRP-conjugated peptide on immobilized dcTPR proteins
Experimental: Full‐length cDNA clones for respective proteins were obtained from IMAGE consortium (SourceBioScience, Nottingham, UK) and PCR amplified with forward and reverse primers (Table 1) containing overhangs with appropriate restriction sites and cloned into pGEX6 vectors (GE Healthcare, Uppsala, Sweden). Inserts were sequence verified, and the plasmids were transformed into BL21 Escherichia coli strain. Glutathione‐S‐transferase (GST) fusion proteins were purified from 1 L overnight culture after 2 h of induction with 1 mM IPTG. Cells were pelleted, resuspended in 1× PBS and sonicated 3 × 20 s on ice. EDTA and protease inhibitor cocktail were added to prevent proteolysis. The suspension was centrifuged for 30 min at 50 000 g to remove cell debris, and supernatant was loaded onto a 1 mL GSTrap™ 4B column (GE Healthcare). After column washing with 30 mL PBS, GST fusion proteins were eluted with 2.5 mL 10 mM glutathione in PBS. Eluate was passed through a PD‐10 column (GE Healthcare) to remove free glutathione. To prepare GST‐tag‐free proteins, we performed overnight cleavage at 4 °C with PreScission protease (GE Healthcare) followed by passage through a GSTrap column to remove free GST protein. Average yield from 1 L starting culture was 1–5 mg of purified proteins. Protein‐containing fractions were collected, checked with SDS/PAGE and kept at −20 °C.
Peptides were dissolved in HEPES‐KOH buffer pH 7.2 at concentration of 1 mg·mL^−1 and incubated with equimolar amounts of activated horseradish peroxidase (HRP) (Lightning‐link® HRP labeling kit cat. 701‐004, from Innova Biosciences) for 5 min. Reaction was quenched with 0.1 M Tris/HCl, pH 7.5 for 10 min and the products were passed through PD‐10 columns (GE Healthcare). Dot‐blot experiments were performed using GST‐tag‐free proteins applied to the nitrocellulose membrane. After blocking of membrane with 3% BSA in TBS‐T buffer for 1 h and subsequent wash with TBS‐T, HRP‐conjugated peptides (1 × 500 times dilution) were applied and incubated for 1 h. After subsequent washing (3 × 10 min, TBS‐T), membrane was dried and signals were quantified using a digital Fujifilm LAS3000 imager and LAS3000 software. In competition experiments, increasing concentrations of unlabeled peptides were co‐incubated with peptide–HRP conjugates.
Each peptide was separately coupled to HRP.

NADSYN1 = molecular target: T2, NADSYN1; assay: pull-down; GST–AIP and GST–FKBP51 as bait, purified full-length and truncated proteins as prey; bound proteins probed by western blot with their antibodies; conditions: both partners purified
DNAAF2 = molecular target: T3, DNAAF2; assay: as above; conditions: both partners purified
GST–FKBP51 = molecular target: B2; assay: as above; conditions: both partners purified
GST–AIP = molecular target: B1; assay: as above; conditions: both partners purified

CC(C)C[C@H](NC(=O)[C@H](CO)NC(=O)[C@H](CCC(N)=O)NC(=O)[C@H](C)NC(=O)[C@H](CCCNC(=N)N)NC(=O)[C@H](CCCNC(=N)N)NC(=O)[C@H](CCCNC(=N)N)NC(=O)[C@H](CCCNC(=N)N)NC(=O)[C@H](CCCNC(=N)N)NC(=O)[C@H](CCCNC(=N)N)NC(=O)[C@H](CCCNC(=N)N)NC(=O)[C@H](CCCNC(=N)N)NC(=O)[C@@H](N)CCCNC(=N)N)C(=O)N[C@@H](C)C(=O)N[C@@H](CCC(=O)O)C(=O)N[C@@H](CC(=O)O)C(=O)N[C@@H](CC(=O)O)C(=O)N[C@H](C(=O)N[C@@H](CCC(=O)O)C(=O)O)C(C)C [R9–Tom20] (H-RRRRRRRRRAQSLAEDDVE-OH)
fluorescein staining of HEK293 cells (peptide translocation into the cells) (HEK293 cells): resulted in HEK293 cells staining | decrease of Hsp90–Tom70 interaction signal (PLA) (Hsp90–Tom70 interaction [1]): failed to inhibit | inhibition of Tom20–Tom70 interaction (mammalian two-hybrid, luciferase) (Tom20–Tom70 interaction): sensitive | inhibition of Hsp90–Tom70 interaction (mammalian two-hybrid, luciferase) (Hsp90–Tom70 interaction [2]): inhibited only by addition of R9–Hsp90 peptide

H-DDDDDDDDDD-OH [poly‐D, reference compound]
interaction with FKBP51 (FKBP51 [3]): no interaction was observed | signal of HRP-conjugated peptide in dot-blot binding assay (FKBP51 [4]): did not produce any signal

B1
binding result (NADSYN1): binds | binding result (DNAAF2): binds

B2
binding result (NADSYN1): binds | binding result (DNAAF2): binds

B3
binding result (GST–FKBP51): binds | binding result (GST–AIP): binds

Source: PMC6212638, “In silico identification and biochemical characterization of the human dicarboxylate clamp TPR protein interaction network” (FEBS Open Bio, 2018)
